{"source": "patent US8426202B2", "about": "“Cell culture medium” (Cellca GmbH, priority 2005, dated 2013)", "key": {"[1]": {"system": "CHO cell line that expresses an antibody", "assay": "Fed-batch experiment with the substances according to the invention (Example 2, Table 2)", "assay_type": "cell-based, Chinese hamster", "design": "Viabil.: concentration or dose not given beside the values", "description": "Feed took place at regular intervals."}, "[2]": {"system": "CHO cell line that expresses an antibody", "settings": "fed-batch, glutamine-free basal and feed media, substance 0.5-1 g/l", "from_the_text": "(§1) A CHO cell line that expresses an antibody was used for the experiments.\nThis is a serum-free, protein-free nutrient medium. It is a ready-made, sterile-filtered nutrient medium.\nAfter 1-4 days the cells were supplemented with a feed medium, i.e. the process was switched to fed-batch mode. Feed took place at regular intervals. In fed-batch experiments, a protein-free and serum-free feed medium from the company HyQ (R05.2 supplement, Cat. No.: SH30584.04, Lot No.: APF21457G) was used.\nAll substances (chemicals) used according to the invention were obtained from the company Sigma and stock solutions were prepared from them. From the stock solutions, the substances were put at the desired final concentration in culture tubes. The various culture tubes prepared in this way were finally inoculated with the antibody-producing CHO-clone at a target inoculation cell concentration (1-3×10^5/ml). For this, the corresponding amount of inoculum cells was calculated and the required amount of inoculum cell suspension was centrifuged. […] In this way the desired inoculation cell concentration was adjusted in the cell suspension being investigated. The cell suspension thus prepared was proportioned in the culture tubes, which were provided with the substances according to the invention beforehand. The culture tubes were incubated at 37° C., and 8% CO2 atmosphere, with shaking. The culture tubes were cultivated for 8-11 days in the batch mode or in the fed-batch mode. Samples for offline measurement of the variables were taken from the culture vessels at regular intervals, for example daily or on every third day. The metabolic variables and cell concentrations of the samples were measured. Cell concentration and cell vitality were measured with a CeDex instrument. The metabolic variables (glucose, lactate, glutamine and ammonium) were determined with an analyzer (BioProfile 100).\n(§2) The following final concentrations of the substances according to the invention were established in a nutrient medium after inoculation:\nThe substances according to the invention were tested under fed-batch conditions. […] The feed medium used was from the company HyQ (R05.2 supplement, Cat. No.: SH30584.04, Lot No.: APF21457G). The feed medium was glutamine-free (Table 4)."}, "[3]": {"system": "CHO cell line that expresses an antibody", "settings": "fed-batch, basal medium 4 mM glutamine, feed with 3 g/l Ala-Gln and 3 g/l Gly-Gln, substance 0.5-1 g/l", "method": "as §1\nThe experiments were carried out either in batch mode or in fed-batch mode. When the process was carried out in fed-batch mode, the process was first started in batch mode in the above-mentioned basal medium and cells were cultivated in this manner for 1-4 days. After 1-4 days the cells were supplemented with a feed medium, i.e. the process was switched to fed-batch mode. Feed took place at regular intervals. In fed-batch experiments, a protein-free and serum-free feed medium from the company HyQ (R05.2 supplement, Cat. No.: SH30584.04, Lot No.: APF21457G) was used.\nFrom the stock solutions, the substances were put at the desired final concentration in culture tubes. The various culture tubes prepared in this way were finally inoculated with the antibody-producing CHO-clone at a target inoculation cell concentration (1-3×10^5/ml). For this, the corresponding amount of inoculum cells was calculated and the required amount of inoculum cell suspension was centrifuged. […] In this way the desired inoculation cell concentration was adjusted in the cell suspension being investigated. The cell suspension thus prepared was proportioned in the culture tubes, which were provided with the substances according to the invention beforehand. The culture tubes were incubated at 37° C., and 8% CO2 atmosphere, with shaking. The culture tubes were cultivated for 8-11 days in the batch mode or in the fed-batch mode. Samples for offline measurement of the variables were taken from the culture vessels at regular intervals, for example daily or on every third day. The metabolic variables and cell concentrations of the samples were measured. Cell concentration and cell vitality were measured with a CeDex instrument. The metabolic variables (glucose, lactate, glutamine and ammonium) were determined with an analyzer (BioProfile 100).\nas §2\nThe substances according to the invention were tested under fed-batch conditions. […] The feed medium used was from the company HyQ (R05.2 supplement, Cat. No.: SH30584.04, Lot No.: APF21457G). 3 g/l alanyl-glutamine (Ala-Gin) and 3 g/l glycyl-glutamine (Gly-Gln) were added to the feed medium."}}, "note": "Where two headings read alike, the source gives them in different places.", "data": [{"smiles": "O=C(O)CCC(=O)C(=O)O", "note": "[α-Keto-glutarate]", "values": [{"measurement": "Viabil.", "setting": "[1]; day 0, fed-batch", "value": 91, "unit": "%"}, {"measurement": "Viabil.", "setting": "[1]; day 2, fed-batch", "value": 97, "unit": "%"}, {"measurement": "Viabil.", "setting": "[1]; day 5, fed-batch", "value": 97, "unit": "%"}, {"measurement": "Viabil.", "setting": "[1]; day 8, fed-batch", "value": 95, "unit": "%"}, {"measurement": "Sp. Gluc cons.", "setting": "[2]; day 0", "value": 94}, {"measurement": "Sp. NH4 prod", "setting": "[2]; day 0", "value": "100 % of control"}, {"measurement": "TCD", "setting": "[2]; day 0", "value": "100 % of control"}, {"measurement": "VCD", "setting": "[2]; day 0", "value": "100 % of control"}, {"measurement": "Viabil.", "setting": "[2]; day 0", "value": 94, "unit": "%"}, {"measurement": "Sp. Gluc cons.", "setting": "[2]; day 3", "value": 98}, {"measurement": "Sp. Lactate prod.", "setting": "[2]; day 3", "value": "70 % of control"}, {"measurement": "Sp. NH4 prod", "setting": "[2]; day 3", "value": "94 % of control"}, {"measurement": "TCD", "setting": "[2]; day 3", "value": "94 % of control"}, {"measurement": "VCD", "setting": "[2]; day 3", "value": "103 % of control"}, {"measurement": "Viabil.", "setting": "[2]; day 3", "value": 96, "unit": "%"}, {"measurement": "Sp. Gluc cons.", "setting": "[2]; day 5", "value": 98}, {"measurement": "Sp. Lactate prod.", "setting": "[2]; day 5", "value": "72 % of control"}, {"measurement": "Sp. NH4 prod", "setting": "[2]; day 5", "value": "94 % of control"}, {"measurement": "TCD", "setting": "[2]; day 5", "value": "103 % of control"}, {"measurement": "Viabil.", "setting": "[2]; day 5", "value": 93, "unit": "%"}, {"measurement": "Sp. Gluc cons.", "setting": "[2]; day 7", "value": 95}, {"measurement": "Sp. Lactate prod.", "setting": "[2]; day 7", "value": "72 % of control"}, {"measurement": "Sp. NH4 prod", "setting": "[2]; day 7", "value": "95 % of control"}, {"measurement": "TCD", "setting": "[2]; day 7", "value": "96 % of control"}, {"measurement": "VCD", "setting": "[2]; day 7", "value": "99 % of control"}, {"measurement": "Viabil.", "setting": "[2]; day 7", "value": 90, "unit": "%"}, {"measurement": "Sp. Gluc cons.", "setting": "[2]; day 9", "value": 109}, {"measurement": "Sp. Lactate prod.", "setting": "[2]; day 9", "value": "79 % of control"}, {"measurement": "Sp. NH4 prod", "setting": "[2]; day 9", "value": "103 % of control"}, {"measurement": "TCD", "setting": "[2]; day 9", "value": "92 % of control"}, {"measurement": "VCD", "setting": "[2]; day 9", "value": "92 % of control"}, {"measurement": "Viabil.", "setting": "[2]; day 9", "value": 93, "unit": "%"}, {"measurement": "Viabil.", "setting": "[3]; day 0", "value": 96, "unit": "%"}, {"measurement": "Viabil.", "setting": "[3]; day 3", "value": 93, "unit": "%"}, {"measurement": "Viabil.", "setting": "[3]; day 5", "value": 96, "unit": "%"}, {"measurement": "Viabil.", "setting": "[3]; day 7", "value": 84, "unit": "%"}, {"measurement": "Viabil.", "setting": "[3]; day 9", "value": 67, "unit": "%"}]}]}
